Where “and” joins values, the source holds several entries; their conditions need not be identical. Identical values can stand only once.
Tests used:
[1] = molecular target: Aminopeptidase N (Homo sapiens, UniProt P15144); experiment: Inhibitory activity against aminopeptidase N (APN) in human acute lymphoblastic leukemia MOLT-4 cell line; type: cell-based
[2] = Cytotoxicity in human embryonic lung flbroblast Wl-38 cells using WST-1 viability assay
[3] = molecular target: Dipeptidyl peptidase 4 (Homo sapiens, UniProt P27487); experiment: Inhibitory activity against Dipeptidylpeptidase IV (DPP IV) in human acute lymphoblastic leukemia MOLT-4 cell line; type: cell-based
Dipeptidyl peptidase 4, sequence (P27487 whole entry): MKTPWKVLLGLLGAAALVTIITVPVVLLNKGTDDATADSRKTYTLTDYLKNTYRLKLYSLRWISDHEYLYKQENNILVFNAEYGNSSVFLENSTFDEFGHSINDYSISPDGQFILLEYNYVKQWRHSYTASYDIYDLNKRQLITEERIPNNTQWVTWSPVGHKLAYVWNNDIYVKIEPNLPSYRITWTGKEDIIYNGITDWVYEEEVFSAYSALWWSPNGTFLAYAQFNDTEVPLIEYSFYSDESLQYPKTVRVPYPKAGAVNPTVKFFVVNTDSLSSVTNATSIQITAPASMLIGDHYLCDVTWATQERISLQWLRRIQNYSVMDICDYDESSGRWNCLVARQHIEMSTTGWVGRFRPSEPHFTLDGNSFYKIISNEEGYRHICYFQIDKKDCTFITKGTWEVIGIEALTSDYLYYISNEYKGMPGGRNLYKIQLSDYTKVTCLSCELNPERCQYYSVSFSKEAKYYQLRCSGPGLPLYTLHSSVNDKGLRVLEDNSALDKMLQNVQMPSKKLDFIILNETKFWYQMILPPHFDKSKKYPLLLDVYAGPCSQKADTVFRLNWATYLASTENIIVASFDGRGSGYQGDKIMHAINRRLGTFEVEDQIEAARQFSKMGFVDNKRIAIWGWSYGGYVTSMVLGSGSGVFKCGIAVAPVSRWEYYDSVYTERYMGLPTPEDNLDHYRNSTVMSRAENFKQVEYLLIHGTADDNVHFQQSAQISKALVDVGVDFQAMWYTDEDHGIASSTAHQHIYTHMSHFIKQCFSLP

Aminopeptidase N, sequence (P15144 whole entry): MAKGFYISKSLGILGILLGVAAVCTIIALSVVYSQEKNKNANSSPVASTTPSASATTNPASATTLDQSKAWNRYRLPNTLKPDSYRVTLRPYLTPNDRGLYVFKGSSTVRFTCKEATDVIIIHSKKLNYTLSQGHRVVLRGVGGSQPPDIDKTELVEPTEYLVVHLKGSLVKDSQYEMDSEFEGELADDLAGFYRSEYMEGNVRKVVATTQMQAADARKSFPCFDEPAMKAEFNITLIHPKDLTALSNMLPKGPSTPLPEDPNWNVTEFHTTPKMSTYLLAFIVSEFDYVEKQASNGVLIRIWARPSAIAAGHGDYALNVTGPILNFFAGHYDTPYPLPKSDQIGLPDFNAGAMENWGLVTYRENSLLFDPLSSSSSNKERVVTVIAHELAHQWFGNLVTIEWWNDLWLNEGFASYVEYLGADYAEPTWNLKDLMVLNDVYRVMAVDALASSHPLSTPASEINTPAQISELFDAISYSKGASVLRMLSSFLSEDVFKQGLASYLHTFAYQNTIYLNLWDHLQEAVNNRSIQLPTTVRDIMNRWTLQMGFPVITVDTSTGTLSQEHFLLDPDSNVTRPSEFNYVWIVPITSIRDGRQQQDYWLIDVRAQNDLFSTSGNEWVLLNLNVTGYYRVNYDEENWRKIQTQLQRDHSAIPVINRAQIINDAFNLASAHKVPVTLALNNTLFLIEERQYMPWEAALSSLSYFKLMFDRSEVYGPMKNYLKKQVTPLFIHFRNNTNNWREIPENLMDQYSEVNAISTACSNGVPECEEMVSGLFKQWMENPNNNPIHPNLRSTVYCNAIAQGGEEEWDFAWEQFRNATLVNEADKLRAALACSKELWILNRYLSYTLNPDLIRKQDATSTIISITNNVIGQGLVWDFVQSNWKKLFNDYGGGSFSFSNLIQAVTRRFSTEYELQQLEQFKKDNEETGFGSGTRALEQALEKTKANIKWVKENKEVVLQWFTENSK

Row | Compound | IC50 [1] | IC50 [3] | IC50 [2]
1 | CC(C)c1cccc(C(C)C)c1N1C(=O)c2c(F)c(F)c(F)c(F)c2C1=S |  | 30.3 µM and 30.4 µM | > 100 µg/mL and > 253 µM
2 | CC(C)c1cccc(C(C)C)c1N1C(=S)c2c(F)c(F)c(F)c(F)c2C1=S |  | 36.7 µM | 1.4 µg/mL and 3.4 µM
3 | Cc1cccc(C)c1N1C(=O)c2ccc(N)cc2C1=O |  |  | > 100 µg/mL and > 376 µM
4 | CC(C)c1cccc(C(C)C)c1N1C(=O)c2ccc(O)cc2C1=O |  |  | 12.7 µg/mL and 39.3 µM
5 | CC(C)c1cccc(C(C)C)c1N1C(=O)c2ccccc2C1=S | > 309 µM and 309 µM | 57.8 µM | 60.5 µg/mL and 187 µM
6 | Cc1cccc(C)c1N1C(=O)c2ccc(O)cc2C1=O |  |  | > 100 µg/mL and > 374 µM
7 | CC(C)c1cccc(C(C)C)c1N1C(=O)c2cccc(O)c2C1=O |  |  | > 100 µg/mL and > 309 µM
8 | CCc1cccc(CC)c1N1C(=O)c2ccc(O)cc2C1=O |  |  | 52 µg/mL and 176 µM
9 | CC(C)c1cccc(C(C)C)c1N1C(=O)c2ccc(N)cc2C1=O |  |  | > 100 µg/mL and > 310 µM

Further lines, with some results ahead:

Row | IC50 [1] | IC50 [3] | Compound | IC50 [2]
10 | > 338 µM | > 338 µM | Cc1cccc(C)c1N1C(=O)c2ccc([N+](=O)[O-])cc2C1=O | > 100 µg/mL
11 | > 338 µM | > 338 µM | Cc1cccc(C)c1N1C(=O)c2cccc([N+](=O)[O-])c2C1=O | > 100 µg/mL
12 |  | 43.3 µM | CCc1cccc(CC)c1N1C(=O)c2cccc(O)c2C1=O | > 100 µg/mL and > 339 µM
13 | > 318 µM | > 318 µM | CSc1ccccc1N1C(=O)c2cccc([N+](=O)[O-])c2C1=O | > 100 µg/mL
14 |  | > 374 µM | Cc1cccc(C)c1N1C(=O)c2cccc(O)c2C1=O | > 100 µg/mL
15 | 109 µM | 60.1 µM | Cc1cccc(C)c1N1C(=O)c2cccc(N)c2C1=O | > 100 µg/mL and > 376 µM
16 | 134 µM | 226 µM | CSc1ccccc1N1C(=O)c2cccc(O)c2C1=O | > 100 µg/mL and > 350 µM
17 |  | > 325 µM | CC(C)c1cccc(C(C)C)c1N1C(=O)c2ccccc2C1=O | > 100 µg/mL
18 |  | > 398 µM | Cc1cccc(C)c1N1C(=O)c2ccccc2C1=O | > 100 µg/mL
19 |  | > 284 µM | CC(C)c1cccc(C(C)C)c1N1C(=O)c2cccc([N+](=O)[O-])c2C1=O | 93.1 µg/mL and 264 µM
20 |  | > 284 µM | CC(C)c1cccc(C(C)C)c1N1C(=O)c2ccc([N+](=O)[O-])cc2C1=O | 42.7 µg/mL and 121 µM
